Data taken from patent publication US10508118B2, “Pyrimidopyrrole compounds, method for preparing the same, pharmaceutical compositions comprising the same and uses thereof” (Xiamen University, priority 2015, dated 2019).
Like-named read-outs stand apart in the source and are kept apart here.

Assays:
Type in all cases: cell-based
EML4-ALK-BaF3 = molecular target: T1, EML4-ALK-BaF3 (Homo sapiens, UniProt Q9UM73); test: Growth inhibition of EML4-ALK transformed BaF3 cells (MTS); conditions: for IC50: EML4-ALK-BaF3 cells, 48 hours, MTS
T1 construct: expressed in transfected cells; host or cells: Ba/F3 cells; the other entry of the earlier key: EML4 (Q9HC35, Echinoderm microtubule-associated protein-like 4)
Protocol: (§1) If compounds can inhibit the activity of ALK kinase or the activity of ALK signaling pathway, they can inhibit the growth of ALK transformed Ba/F3 cells. […] The broad-spectrum toxicity of compounds can be evaluated by determining the effect of the compounds on the growth of wild type BaF3 cells.
(§2) 1) Medium: DMEM (Dulbecco's modified eagle medium) or RPMI1640 (containing 10% fetal bovine serum, 100 μg/mL ampicillin, 100 μg/mL streptomycin).)
(§3) Reagents: MTS solution (2 mg/mL MTS (3-(4,5-dimethylthiazol-2-yl)-5-(3-carboxymethoxyphenyl)-2-(4-sulfophenyl)-2H-tetrazolium, inner salt); 100 μg/mL PES ([…])).
(§4) 3) Test of compound: Transformed Ba/F3 cells (EML4-ALK-BaF3, EML4-ALK(L1196M)-BaF3, NPM-ALK-BaF3) (2×10^4/well) were distributed into 96-well plates, with volume of cell sap of 90 μL, 10 μL of compounds in gradient concentration (the highest concentration 10 was μM, followed by 1/3 step by step dilution, a total of 8 concentrations were set, the system contained 0.1% DMSO (dimethyl sulfoxide)). The cell plates mixed with compounds were cultured in a cell incubator (37° C.; 5% CO2) for 48 hours, and the added 20 μL of MTS reaction solution, mixed and incubated in cell incubator (37° C.; 5% CO2) for 1-4 hours. The OD value at a wavelength of 490 nm was measured using eliasa (VARIOSKAN FLASH, Thermo). Three parallels were set up for each group, with a final concentration of 0.1% DMSO as negative control, and with medium without cells and compounds as blank control.
(§5) 4) Calculation of IC50 value: the semi inhibitory concentration of the compound acting on the cells was calculated using GradPad Prism 5 software according to the cell inhibitory rate measured.

EML4-ALK (L1196M)-BaF3 = molecular target: T2, EML4-ALK (L1196M)-BaF3 (Homo sapiens, UniProt Q9UM73, L1196M); test: Growth inhibition of EML4-ALK (L1196M) transformed BaF3 cells (MTS); conditions: 48 hours
T2 construct: expressed in transfected cells; host or cells: Ba/F3 cells; the other entry of the earlier key: EML4 (Q9HC35, Echinoderm microtubule-associated protein-like 4)
Protocol: as §1, §2, §3, §4, §5

NPM-ALK-BaF3 = molecular target: T3, NPM-ALK-BaF3 (Homo sapiens, UniProt Q9UM73); test: Growth inhibition of NPM-ALK transformed BaF3 cells (MTS); conditions: 48 hours
T3 construct: expressed in transfected cells; host or cells: Ba/F3 cells; the other entry of the earlier key: NPM1 (P06748, Nucleophosmin)
Protocol: (§6) The activity of compounds against ALK kinase was evaluated by inhibiting the growth of cellular ALK kinase EML4-ALK-BaF3, EML4-ALK (L1196M)-BaF3, NPM-ALK-BaF3, and wild type BaF3 (Proc. Natl. Acad. Sci. USA., 2006, 103, 3153-8.) The growth of cellular ALK kinase EML4-ALK-BaF3, EML4-ALK(L1196M)-BaF3, and NPM-ALK-BaF3 depends on their kinase activity. If compounds can inhibit the activity of ALK kinase or the activity of ALK signaling pathway, they can inhibit the growth of ALK transformed Ba/F3 cells. […] The broad-spectrum toxicity of compounds can be evaluated by determining the effect of the compounds on the growth of wild type BaF3 cells.
as §2, §3
as §4, with “control. The inhibition rate of cell growth was calculated by the following formula: Cell inhibition rate %=1−(OD experimental group−OD blank group)/(OD negative group−OD blank group)*100%” for “control.”
as §5

wild type BaF3 = test: Growth inhibition of wild type BaF3 cells (broad-spectrum toxicity); conditions: Mus musculus, BaF3, 48 h, MTS
Protocol: as §6, §2, §3
as §4, with “control. The inhibition rate of cell growth was calculated by the following formula: Cell inhibition rate %=1−(OD experimental group−OD blank group)/(OD negative group−OD blank group)*100%” for “control.”
as §5

[1] = Table 11, read-out: EML4-ALK (L1196M) (IC50 nM)
[2] = Table 12, read-out: L1196M (IC50 nM)

Structure (SMILES)	IC50 (EML4-ALK-BaF3; Table 11) [nM]	IC50 (EML4-ALK (L1196M)-BaF3; [1]) [nM]	IC50 (NPM-ALK-BaF3; Table 11) [nM]	IC50 (wild type BaF3; Table 11) [nM]	IC50 (EML4-ALK-BaF3; Table 12) [nM]	IC50 (EML4-ALK (L1196M)-BaF3; [2]) [nM]	IC50 (NPM-ALK-BaF3; Table 12) [nM]	IC50 (wild type BaF3; Table 12) [nM]	targeting selectivity (EML4-ALK-BaF3; ratio of IC50 between wild-type BaF3 and ALK transformed BaF3 cells)
CCC(C)OC(=O)c1ccccc1Nc1nc(Nc2ccc(N3CCC(O)CC3)cc2)nc2cc[nH]c12 (centres unmarked) [IH-2]	> 10000	40400	> 10000	> 10000	–	–	–	–	–
CS(=O)(=O)c1ccccc1Nc1nc(Nc2ccc(S(N)(=O)=O)cc2)nc2cc[nH]c12 [IC-4]	> 10000	> 10000	> 10000	> 10000	–	–	–	–	–
COC(=O)c1ccccc1Nc1nc(Nc2ccc(S(N)(=O)=O)cc2)nc2cc[nH]c12 [IG-4]	5110	4940	6100	8510	–	–	–	–	–
CS(=O)(=O)c1ccccc1Nc1nc(Nc2ccc(N3CCC(O)CC3)cc2)nc2cc[nH]c12 [IC-3]	> 10000	> 10000	> 10000	> 10000	–	–	–	–	–
CC(C)Sc1ccccc1CNc1nc(Nc2ccc(N3CCC(O)CC3)cc2)nc2cc[nH]c12 [IM-2]	1240	1310	1620	2900	–	–	–	–	–
CN1CCN(c2ccc(Nc3nc(Nc4ccccc4S(C)(=O)=O)c4[nH]ccc4n3)cc2)CC1 [IC-5]	4080	~3350	5260	4590	–	–	–	–	–
COC(=O)c1ccccc1Nc1nc(Nc2ccc(N3CCC(N4CCCC4)CC3)cc2OC)nc2cc[nH]c12 [IG-7]	286	409	1210	~994	–	–	–	–	–
COc1cc(N2CCN(C)CC2)ccc1Nc1nc(NCc2ccccc2S(C)(=O)=O)c2[nH]ccc2n1 [IN-1]	> 10000	> 10000	> 10000	> 10000	–	–	–	–	–
CC(C)S(=O)(=O)c1ccccc1Nc1nc(Nc2cnn(C3CCN(C)CC3)c2)nc2cc[nH]c12 [ID-8]	5170	5680	> 10000	> 10000	–	–	–	–	–
COc1cc(N2CCN(C)CC2)ccc1Nc1nc(NC2CC2)c2[nH]ccc2n1 [IS-1]	~2550	1700	1790	5330	–	–	–	–	–
COc1cc(N2CCN(C)CC2)ccc1Nc1nc(NCc2ccccc2S(C)(=O)=O)c2c(ccn2C)n1 [IIK-1]	–	–	–	–	~2700	2100	1980	3280	–
COC(=O)c1cccc(Nc2nc(Nc3ccc(N4CCOCC4)cc3)nc3cc[nH]c23)c1 [II-5]	238	488	1290	1060	–	–	–	–	good targeting selectivity
CC(C)S(=O)(=O)c1ccccc1CNc1nc(Nc2ccc(N3CCC(O)CC3)cc2)nc2ccn(C)c12 [IIL-3]	–	–	–	–	> 10000	> 10000	7440	> 10000	–
COc1cc(C(=O)N2CCC(N3CCN(C)CC3)CC2)ccc1Nc1nc(NCc2ccccc2S(C)(=O)=O)c2c(ccn2C)n1 [IIK-6]	–	–	–	–	> 10000	> 10000	> 10000	> 10000	–
COC(=O)c1ccccc1Nc1nc(Nc2ccc(N3CCC(N4CCN(C)CC4)CC3)cc2OC)nc2cc[nH]c12 [IG-2]	1200	1190	1430	1800	–	–	–	–	–
Cn1ccc2nc(Nc3ccc(S(N)(=O)=O)cc3)nc(Nc3ccccc3S(C)(=O)=O)c21 [IIC-4]	–	–	–	–	> 10000	28200	> 10000	> 10000	–
